From patent US10738028B2, “Spiro three-membered ring, spiro five-membered ring peptide deformylase inhibitor and use thereof in antibacteria and anti-tumor” (priority 2016, dated 2020)

Key:
Type in all cases: cell-based
[1] = system: Enterococcus faecalis (EFA); assay: MIC, two-fold agar dilution (CLSI), clinical isolates
From the text: (§1) 1. The invention adopts the two-fold agar dilution method recommended by the operating procedure of antimicrobial susceptibility testing set by American Clinical and Laboratory Standards Institute (CLSI) to determine the Minimum Inhibitory Concentration (MIC) of the test samples against the tested strains.

[2] = system: Enterococcus faecium (EFM); assay: as above
From the text: as §1

[3] = system: Escherichia coli (including ESBLs, non-ESBLs); assay: as above
From the text: as §1

[4] = system: Moraxella catarrhalis (BCA); assay: as above
From the text: as §1

[5] = system: Streptococcus pneoumoniae (SPN); assay: as above
From the text: as §1

[6] = system: methicillin-resistant Staphylococcus aureus (MRSA); assay: as above
From the text: as §1

[7] = system: methicillin-resistant Staphylococcus epidermidis (MRSE); assay: as above
From the text: as §1

[8] = system: methicillin-sensitive Staphylococcus aureus (MSSA); assay: as above
From the text: as §1

[9] = system: methicillin-sensitive Staphylococcus epidermidis (MSSE); assay: as above
From the text: as §1

[10] = system: HCT-116 colorectal cancer cell line; assay: CCK-8 proliferation inhibition; settings: Homo sapiens, HCT-116, 72 h, concentration of 30 μM; 72 hours; CCK-8; read-out: HCT116 inhibition rate/%
Method: (1) HCT-116 colorectal cancer cell line, A549 lung cancer cell line, MGC-803 gastric cancer cell line, BEL-7402 liver cancer cell line, Jurkat T cell leukemia cell line, HL60 acute myeloid leukemia cell line, Hela cervical cancer cell line, MCF-7 breast cancer cell line, PC3 prostate cancer cell line and SAOS-2 osteosarcoma cell line were made into single cell suspension, 180 μL of which was inoculated into 96-well culture plate, which was cultured overnight in CO2 incubator (37° C., 5% CO2, 95% air).
(2) Each of the spiro three-membered ring, spiro five membered ring peptide deformylase inhibitors was dissolved in DMSO, and was further formulated into drug solution with required different final concentration using corresponding cell culture medium. The drug solutions were added to the above cells respectively (20 μL/well), with the control group added with 1‰ DMSO, and cultured in a CO2 incubator for 72 hours.
(3) After incubation for 72 hours, the culture solution was decanted, and 100 μL of 1:10 diluted CCK-8 solution was added.
Wherein, in step (1), the concentration of the single cell suspension was 2000 cells/well.
Wherein, in step (2), HCT-116 cells were cultured in McCoy's 5A medium (containing 10% newborn bovine serum, 1% double antibody); A549 and PC3 cells were cultured in F12 medium (containing 10% newborn bovine serum, 1% double antibody); MGC-803, BEL-7402, SAOS-2, Jurkat and HL60 cells were cultured in 1640 medium (containing 10% newborn bovine serum, 1% double antibody); and MCF-7 and Hela cells were cultured in DMEM high glucose medium (containing 10% newborn bovine serum, 1% double antibody).

CCCC[C@H](CN(O)C=O)C(=O)N1CC2(CC2)C[C@H]1C(=O)Nc1nncs1 [Example 23, (S)-5-((R)-2-((N-hydroxyformamido)methyl)hexanoyl)-N-(1,3,4-thiadiazol-2-yl)-5-azaspiro[2.4]heptane-6-carboxamide]
2 µg/mL: MIC (anti-bacterial activity) ([4]; strain BCA 14-7) | MIC (anti-bacterial activity) ([4]; strain BCA 14-8) | MIC (anti-bacterial activity) ([6]; strain MRSA 15-2) | MIC (anti-bacterial activity) ([6]; strain MRSA 15-4)
4 µg/mL: MIC (anti-bacterial activity) ([4]; strain BCA 14-4) | MIC (anti-bacterial activity) ([4]; strain BCA 14-6)
> 32 µg/mL: MIC (anti-bacterial activity) ([3]; strain ECO+ 15-1) | MIC (anti-bacterial activity) ([3]; strain ECO+ 15-2) | MIC (anti-bacterial activity) ([3]; strain ECO+ 15-3) | MIC (anti-bacterial activity) ([3]; strain ECO+ 15-4) | MIC (anti-bacterial activity) ([3]; strain ECO− 15-1) | MIC (anti-bacterial activity) ([3]; strain ECO− 15-2) | MIC (anti-bacterial activity) ([3]; strain ECO− 15-3) | MIC (anti-bacterial activity) ([3]; strain ECO− 15-4)
7%: inhibition at 30 µM [10]
8 µg/mL: MIC (anti-bacterial activity) ([2]; strain EFM 15-2) | MIC (anti-bacterial activity) ([2]; strain EFM 15-4) | MIC (anti-bacterial activity) ([2]; strain EFM 15-6) | MIC (anti-bacterial activity) ([4]; strain BCA 14-1)
1 µg/mL: MIC (anti-bacterial activity) ([1]; strain EFA 15-3) | MIC (anti-bacterial activity) ([2]; strain EFM 15-1) | MIC (anti-bacterial activity) ([4]; strain BCA 14-5) | MIC (anti-bacterial activity) ([4]; strain BCA 14-10) | MIC (anti-bacterial activity) ([5]; strain SPN 16-4) | MIC (anti-bacterial activity) ([7]; strain MRSE 15-7) | MIC (anti-bacterial activity) ([8]; strain MSSA 15-3) | MIC (anti-bacterial activity) ([8]; strain MSSA 15-4)
15 µg/mL: MIC (anti-bacterial activity) ([5]; strain SPN 16-2)
0.5 µg/mL: MIC (anti-bacterial activity) ([2]; strain EFM 15-3) | MIC (anti-bacterial activity) ([2]; strain EFM 15-5)
32 µg/mL: MIC (anti-bacterial activity) ([1]; strain EFA 15-1) | MIC (anti-bacterial activity) ([1]; strain EFA 15-2) | MIC (anti-bacterial activity) ([1]; strain EFA 15-4) | MIC (anti-bacterial activity) ([1]; strain EFA 15-5) | MIC (anti-bacterial activity) ([1]; strain EFA 15-6) | MIC (anti-bacterial activity) ([1]; strain EFA 15-9)
0.25 µg/mL: MIC (anti-bacterial activity) ([6]; strain MRSA 15-1) | MIC (anti-bacterial activity) ([6]; strain MRSA 15-3) | MIC (anti-bacterial activity) ([7]; strain MRSE 15-1) | MIC (anti-bacterial activity) ([7]; strain MRSE 15-2) | MIC (anti-bacterial activity) ([7]; strain MRSE 15-3) | MIC (anti-bacterial activity) ([8]; strain MSSA 15-5) | MIC (anti-bacterial activity) ([8]; strain MSSA 15-6) | MIC (anti-bacterial activity) ([9]; strain MSSE 15-3) | MIC (anti-bacterial activity) ([9]; strain MSSE 15-4) | MIC (anti-bacterial activity) ([9]; strain MSSE 15-5) | MIC (anti-bacterial activity) ([9]; strain MSSE 15-6)

CCCC[C@H](CN(O)C=O)C(=O)N1CC2(CC2)C[C@H]1c1nc2ccccc2n1CCN(C)C [Example 24]
32 µg/mL: MIC (anti-bacterial activity) ([1]; strain EFA 15-1) | MIC (anti-bacterial activity) ([1]; strain EFA 15-2) | MIC (anti-bacterial activity) ([1]; strain EFA 15-4) | MIC (anti-bacterial activity) ([1]; strain EFA 15-5) | MIC (anti-bacterial activity) ([1]; strain EFA 15-6) | MIC (anti-bacterial activity) ([1]; strain EFA 15-9) | MIC (anti-bacterial activity) ([3]; strain ECO− 15-3) | MIC (anti-bacterial activity) ([4]; strain BCA 14-1) | MIC (anti-bacterial activity) ([4]; strain BCA 14-6) | MIC (anti-bacterial activity) ([6]; strain MRSA 15-2) | MIC (anti-bacterial activity) ([6]; strain MRSA 15-3)
16 µg/mL: MIC (anti-bacterial activity) ([3]; strain ECO+ 15-2) | MIC (anti-bacterial activity) ([3]; strain ECO+ 15-3) | MIC (anti-bacterial activity) ([3]; strain ECO+ 15-4) | MIC (anti-bacterial activity) ([3]; strain ECO− 15-2) | MIC (anti-bacterial activity) ([3]; strain ECO− 15-4) | MIC (anti-bacterial activity) ([4]; strain BCA 14-4)
4 µg/mL: MIC (anti-bacterial activity) ([2]; strain EFM 15-1) | MIC (anti-bacterial activity) ([2]; strain EFM 15-5) | MIC (anti-bacterial activity) ([5]; strain SPN 16-2)
2%: inhibition at 30 µM [10]
8 µg/mL: MIC (anti-bacterial activity) ([1]; strain EFA 15-3) | MIC (anti-bacterial activity) ([2]; strain EFM 15-2) | MIC (anti-bacterial activity) ([2]; strain EFM 15-4) | MIC (anti-bacterial activity) ([2]; strain EFM 15-6) | MIC (anti-bacterial activity) ([3]; strain ECO+ 15-1) | MIC (anti-bacterial activity) ([3]; strain ECO− 15-1) | MIC (anti-bacterial activity) ([4]; strain BCA 14-5) | MIC (anti-bacterial activity) ([4]; strain BCA 14-7) | MIC (anti-bacterial activity) ([4]; strain BCA 14-8) | MIC (anti-bacterial activity) ([4]; strain BCA 14-10) | MIC (anti-bacterial activity) ([6]; strain MRSA 15-1) | MIC (anti-bacterial activity) ([6]; strain MRSA 15-4) | MIC (anti-bacterial activity) ([7]; strain MRSE 15-1) | MIC (anti-bacterial activity) ([7]; strain MRSE 15-2) | MIC (anti-bacterial activity) ([7]; strain MRSE 15-3) | MIC (anti-bacterial activity) ([7]; strain MRSE 15-7) | MIC (anti-bacterial activity) ([8]; strain MSSA 15-3) | MIC (anti-bacterial activity) ([8]; strain MSSA 15-4) | MIC (anti-bacterial activity) ([8]; strain MSSA 15-5) | MIC (anti-bacterial activity) ([8]; strain MSSA 15-6) | MIC (anti-bacterial activity) ([9]; strain MSSE 15-3)
1 µg/mL: MIC (anti-bacterial activity) ([5]; strain SPN 16-4)
2 µg/mL: MIC (anti-bacterial activity) ([2]; strain EFM 15-3) | MIC (anti-bacterial activity) ([9]; strain MSSE 15-4) | MIC (anti-bacterial activity) ([9]; strain MSSE 15-5) | MIC (anti-bacterial activity) ([9]; strain MSSE 15-6)
